Legend:
Format in all cases: in vivo
[1] = tested on: Scirpus juncoides Roxb. subsp. juncoides Roxb. (Sc); assay: Test for herbicidal effect during breeding period by paddy field water treatment (Test Example 5), Sc; details: paddy field water treatment at 2-leaf stage, 25 g/10 a active ingredient, 30th day
Method: (§1) [table] <Test Example 5> Test For Herbicidal Effect During Breeding Period By Paddy Field Water Treatment A paddy field soil was filled in a plastic pot of 100 cm^2 and subjected to puddling. Seeds of Monochoria vaginalis Presl (Mo) and Scirpus juncoides Roxb. subsp. juncoides Roxb. (Sc) were sowed; water was filled in a depth of 3 cm; and breeding was made. When Mo reached a 1-leaf stage and Sc reached a 2-leaf stage, wettable powders produced in accordance with the Formulation 1 were diluted with water and dropped on the water surface. […] Then, breeding was made in a greenhouse. At the 30th day from the treatment, the herbicidal effect of each wettable powder was examined in accordance with the standard shown in Table 40.

[2] = tested on: Monochoria vaginalis Presl (Mo); assay: Test for herbicidal effect during breeding period by paddy field water treatment (Test Example 5), Mo; details: paddy field water treatment at 1-leaf stage, 25 g/10 a active ingredient, 30th day
Method: as §1

[3] = tested on: Echinochloa crus-galli (L.) Beauv. var. crusgalli (Ec); assay: Test for herbicidal effect by upland foliage treatment (Test Example 3); details: 100 g/10 a active ingredient, examined at 14th day
Outline: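 Potted upland-soil Ec seedlings grown 2 weeks in greenhouse, then foliage-sprayed with water-diluted wettable powder at 100 L per 10 ares, giving 100 g active ingredient per 10 ares. Herbicidal effect scored on a graded standard 14 days after treatment.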

[4] = tested on: Echinochloa oryzicola Vasing. (Eo); assay: Test for herbicidal effect by paddy field soil treatment (Test Example 1); details: application amount (active ingredient) 100 g/10 a, examined at the 21st day from the treatment, index per Table 40
Outline: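 Eo seeds sown in puddled paddy soil under 3 cm water; next day a water-diluted wettable powder was dropped onto the water surface at 100 g active ingredient per 10 ares. Herbicidal effect scored on a standard scale 21 days after treatment, greenhouse-grown.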

[5] = tested on: Setaria viridis (L.) Beauv. (Se); assay: Test for herbicidal effect by upland field soil treatment (Test Example 2), Se
Outline: (§2)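 Echinochloa crus-galli and Setaria viridis were sown in upland field soil and covered, then the soil surface was sprayed with water-diluted wettable powder at 100 g active ingredient per 10 ares (100 liters per 10 ares). Plants were grown in a greenhouse and scored on a standard scale on day 21.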

[6] = tested on: Echinochloa crus-galli (L.) Beauv. var. crusgall (Ec); assay: Test for herbicidal effect by upland field soil treatment (Test Example 2), Ec
Outline: as §2

[7] = tested on: Polygonum lapathifolium L. subsp. nodosum (Pers.) Kitam. (Po); assay: Test for herbicidal effect to broadleaf weeds by upland field soil treatment (Test Example 6), Po; details: 25 g/10 a active ingredient, 30th day
Method: (§3) Test for herbicidal effect to broadleaf weeds by upland field soil treatment
(§4) An upland field soil was filled in a plastic pot of 80 cm^2. Seeds of Polygonum lapathifolium L. subsp. nodosum (Pers.) Kitam. (Po) and Chenopodium album L. (Ch) were sowed, followed by covering with the same soil. Wettable powders produced in accordance with the Formulation 1 were diluted with water and sprayed uniformly on the soil surface using a small sprayer, […] Then, breeding was made in a greenhouse. At the 30th day from the treatment, the herbicidal effect of each wettable powder was examined in accordance with the standard shown in Table 40.

[8] = tested on: Chenopodium album L. (Ch); assay: Test for herbicidal effect to broadleaf weeds by upland field soil treatment (Test Example 6), Ch; details: 25 g/10 a active ingredient, 30th day
Method: as §3, §4

[9] = application amount (active ingredient) 100 g/10 a, examined at the 21st day from the treatment, index per Table 40
[10] = 100 g/10 a active ingredient, examined at 21st day

| SMILES | Herbicidal effect to Sc [1] | Herbicidal effect to Mo [2] | Herbicidal effect to Ec [3] | Herbicidal effect to Eo [4] | Herbicidal effect to Se [5, 9] | Herbicidal effect to Ec [6, 9] | Herbicidal effect to Se [5, 10] | Herbicidal effect to Ec [6, 10] | Herbicidal effect to Po [7] | Herbicidal effect to Ch [8] |
| --- | --- | --- | --- | --- | --- | --- | --- | --- | --- | --- |
| CC1(CCl)CC(S(=O)(=O)Cc2ccccc2F)=NO1 (stereo not drawn) [Comparative compound 2, reference compound] | 1 (A herbicidal effect or phytotoxicity of 10% to less than 30%) | 1 (A herbicidal effect or phytotoxicity of 10% to less than 30%) | – | – | – | – | – | – | – | – |
| CC1(C)CC(S(=O)(=O)Cc2ccccc2OC(F)(F)F)=NO1 [Compound 1-58] | 5 (A herbicidal effect or phytotoxicity of 90% or more) | 4 (A herbicidal effect or phytotoxicity of 70% to less than 90%) | 5 (A herbicidal effect or phytotoxicity of 90% or more) | 5 (A herbicidal effect or phytotoxicity of 90% or more) | 5 (A herbicidal effect or phytotoxicity of 90% or more) | 5 (A herbicidal effect or phytotoxicity of 90% or more) | – | – | – | – |
| CC1(C)CC(S(=O)(=O)Cc2c(Cl)cccc2OCC(F)(F)F)=NO1 [Compound 1-567] | 5 (A herbicidal effect or phytotoxicity of 90% or more) | 5 (A herbicidal effect or phytotoxicity of 90% or more) | 4 (A herbicidal effect or phytotoxicity of 70% to less than 90%) | 5 (A herbicidal effect or phytotoxicity of 90% or more) | – | – | 5 (A herbicidal effect or phytotoxicity of 90% or more) | 5 (A herbicidal effect or phytotoxicity of 90% or more) | – | – |
| CCc1ccccc1CS(=O)(=O)C1=NOC(C)(C)C1 [Compound 1-8] | 4 (A herbicidal effect or phytotoxicity of 70% to less than 90%) | 5 (A herbicidal effect or phytotoxicity of 90% or more) | 5 (A herbicidal effect or phytotoxicity of 90% or more) | 5 (A herbicidal effect or phytotoxicity of 90% or more) | 5 (A herbicidal effect or phytotoxicity of 90% or more) | 5 (A herbicidal effect or phytotoxicity of 90% or more) | – | – | – | – |
| CCc1ccccc1CS(=O)(=O)C1=NOC(C)(CCl)C1 (stereo not drawn) [Comparative compound 1, reference compound] | 1 (A herbicidal effect or phytotoxicity of 10% to less than 30%) | 1 (A herbicidal effect or phytotoxicity of 10% to less than 30%) | – | – | – | – | – | – | – | – |
| CC1(C)CC(S(=O)(=O)Cc2ccccc2C(F)(F)F)=NO1 [Compound 1-157] | 5 (A herbicidal effect or phytotoxicity of 90% or more) | 5 (A herbicidal effect or phytotoxicity of 90% or more) | 5 (A herbicidal effect or phytotoxicity of 90% or more) | 5 (A herbicidal effect or phytotoxicity of 90% or more) | 5 (A herbicidal effect or phytotoxicity of 90% or more) | 5 (A herbicidal effect or phytotoxicity of 90% or more) | – | – | – | – |
| Cc1cc(C)cc(CS(=O)(=O)C2=NOC(C)(C)C2)c1 [Compound 1-523] | – | – | 5 (A herbicidal effect or phytotoxicity of 90% or more) | 5 (A herbicidal effect or phytotoxicity of 90% or more) | – | – | 5 (A herbicidal effect or phytotoxicity of 90% or more) | 5 (A herbicidal effect or phytotoxicity of 90% or more) | 5 (A herbicidal effect or phytotoxicity of 90% or more) | 5 (A herbicidal effect or phytotoxicity of 90% or more) |
| CC1(C)CC(S(=O)(=O)Cc2c(F)cccc2OC(F)F)=NO1 [Compound 1-573] | – | – | 5 (A herbicidal effect or phytotoxicity of 90% or more) | 5 (A herbicidal effect or phytotoxicity of 90% or more) | – | – | 5 (A herbicidal effect or phytotoxicity of 90% or more) | 5 (A herbicidal effect or phytotoxicity of 90% or more) | 5 (A herbicidal effect or phytotoxicity of 90% or more) | 5 (A herbicidal effect or phytotoxicity of 90% or more) |
| CC1(C)CC(S(=O)(=O)Cc2c(F)ccc(F)c2F)=NO1 [Compound 1-501] | – | – | 5 (A herbicidal effect or phytotoxicity of 90% or more) | 5 (A herbicidal effect or phytotoxicity of 90% or more) | – | – | 5 (A herbicidal effect or phytotoxicity of 90% or more) | 5 (A herbicidal effect or phytotoxicity of 90% or more) | 5 (A herbicidal effect or phytotoxicity of 90% or more) | 5 (A herbicidal effect or phytotoxicity of 90% or more) |
| CCCOc1ccccc1CS(=O)(=O)C1=NOC(C)(C)C1 [Compound 1-46] | – | – | 4 (A herbicidal effect or phytotoxicity of 70% to less than 90%) | 5 (A herbicidal effect or phytotoxicity of 90% or more) | 5 (A herbicidal effect or phytotoxicity of 90% or more) | 5 (A herbicidal effect or phytotoxicity of 90% or more) | – | – | 5 (A herbicidal effect or phytotoxicity of 90% or more) | 4 (A herbicidal effect or phytotoxicity of 70% to less than 90%) |
| CC1(C)CC(S(=O)(=O)Cc2c(F)cccc2[N+](=O)[O-])=NO1 [Compound 1-499] | – | – | 5 (A herbicidal effect or phytotoxicity of 90% or more) | 5 (A herbicidal effect or phytotoxicity of 90% or more) | – | – | 5 (A herbicidal effect or phytotoxicity of 90% or more) | 5 (A herbicidal effect or phytotoxicity of 90% or more) | 5 (A herbicidal effect or phytotoxicity of 90% or more) | 4 (A herbicidal effect or phytotoxicity of 70% to less than 90%) |
| Cc1cc(C)c(C)c(CS(=O)(=O)C2=NOC(C)(C)C2)c1C [Compound 1-547] | 5 (A herbicidal effect or phytotoxicity of 90% or more) | 5 (A herbicidal effect or phytotoxicity of 90% or more) | 5 (A herbicidal effect or phytotoxicity of 90% or more) | 5 (A herbicidal effect or phytotoxicity of 90% or more) | – | – | 5 (A herbicidal effect or phytotoxicity of 90% or more) | 5 (A herbicidal effect or phytotoxicity of 90% or more) | – | – |
| CC1(C)CC(S(=O)(=O)Cc2cc(F)ccc2F)=NO1 [Compound 1-498] | – | – | 5 (A herbicidal effect or phytotoxicity of 90% or more) | 5 (A herbicidal effect or phytotoxicity of 90% or more) | – | – | 5 (A herbicidal effect or phytotoxicity of 90% or more) | 5 (A herbicidal effect or phytotoxicity of 90% or more) | 5 (A herbicidal effect or phytotoxicity of 90% or more) | 5 (A herbicidal effect or phytotoxicity of 90% or more) |
| O=S(=O)(Cc1c(F)cccc1F)C1=NOC2(CCC2)C1 [Compound 1-382] | 4 (A herbicidal effect or phytotoxicity of 70% to less than 90%) | 5 (A herbicidal effect or phytotoxicity of 90% or more) | – | 5 (A herbicidal effect or phytotoxicity of 90% or more) | 5 (A herbicidal effect or phytotoxicity of 90% or more) | 5 (A herbicidal effect or phytotoxicity of 90% or more) | – | – | – | – |
| COc1cccc(F)c1CS(=O)(=O)C1=NOC(C)(C)C1 [Compound 1-534] | – | – | 5 (A herbicidal effect or phytotoxicity of 90% or more) | 5 (A herbicidal effect or phytotoxicity of 90% or more) | – | – | 5 (A herbicidal effect or phytotoxicity of 90% or more) | 5 (A herbicidal effect or phytotoxicity of 90% or more) | 5 (A herbicidal effect or phytotoxicity of 90% or more) | 5 (A herbicidal effect or phytotoxicity of 90% or more) |

Reference: patent publication US6841519B1, “Isoxazoline derivatives and herbicides containing the same as the active ingredient” (Kumiai Chemical Industry Co., Ltd., priority 1999, dated 2005)
